Values joined by “and” are separate entries in the source; they are usually repeats but may differ in a detail not shown here. Equal entries are not always repeated.
Assays:
[1] = Stability of stock and working solutions and of extracted samples in the autosampler; assay type: physicochemical; conditions: for stock solution stability, value for accuracy: DMSO stock, 10 days at −80 °C, versus freshly made, CV 3.7%; for working solution stability, value for accuracy: methanol, 8 h at room temperature, with or without light, CV 6.5%
From the text: However, in the present study it has been conducted to study the stability of the stock and working solutions, freeze–thaw stability and autosampler stability. For all stability studies, the analyte stability should fall within 85−115% of the nominal concentration and was not allowed to deviate more than ±15% from the nominal concentration of all the QCs studied, as indicated in the Guidelines for Bioanalytical Methods Validation.
On the other hand, the stability of the working solutions in methanol on each test day was evaluated after 8 h at room temperature with light and in the dark.
The stability in the autosampler of the sample after the extraction process was evaluated at room temperature in the range between 2 and 8 h.

[2] = 4 CML patients
[3] = 493 subjects with CML; cited from earlier work
[4] = cited from earlier work
[5] = test system: cytochrome P450 (CYP) 3A4; conditions: cited from earlier work
[6] = Therapeutic drug monitoring: steady-state plasma pharmacokinetics in patients with CML; conditions: for Tmax / Cmin / Cmax: steady state; for CL/F: apparent oral clearance
[7] = no reference given; cited from earlier work
[8] = in vitro, human plasma; cited from earlier work
[9] = 17 patients, 300 mg twice-daily
[10] = co-administered with a high-fat meal
[11] = Patient 1, 200–300 mg twice-daily oral
[12] = Patient 2, 200–300 mg twice-daily oral
[13] = Patient 3, 200–300 mg twice-daily oral
[14] = Patient 4, 200–300 mg twice-daily oral

Cc1cc(/C=C/C#N)cc(C)c1Nc1ccnc(Nc2ccc(C#N)cc2)n1 [rilpivirine]
stock solution stability, value for accuracy [1]: less than 1.5% | working solution stability, value for accuracy [1]: lower than 15.1%

Cc1cn(-c2cc(NC(=O)c3ccc(C)c(Nc4nccc(-c5cccnc5)n4)c3)cc(C(F)(F)F)c2)cn1 [nilotinib, Nilotinib]
Correlation of Cmin with ALT (U/L) [2]: −0.3552 | Correlation of Cmin with AST (U/L) [2]: −0.0833 | Correlation of Cmin with Alkaline phosphatase (U/L) [2]: 0.7497 | Correlation of Cmin with Haemaglobin (g/dL) [2]: −0.0319 | Correlation of Cmin with Haematocrit (%) [2]: 0.0870 | Correlation of Cmin with Leukocytes (×10^3/µL) [2]: −0.9194 | Correlation of Cmin with Neutrophils (×10^3/µL) [2]: −0.0280 | Correlation of Cmin with Platelet (×10^3/µL) [2]: −0.6949 | Correlation of Cmin with Serum bilirrubin (mg/dL) [2]: −0.4013 | Correlation of Cmin with Serum creatinine (g/dL) [2]: −0.1897 | trough concentration (Cmin) associated with longer times to complete cytogenetic response and MMR and shorter time to progression [3]: < 469.4 ng/mL | Cmin at a steady state ([4]; 300 mg twice-daily, some clinical trials, no reference given): ~1123 ng/mL | Cmax at steady state [4, 9]: 1360 ng/mL | Cmin at steady state [4, 9]: 1123 ng/mL | interindividual variability in exposure (coefficient of variation) [4]: 32–64% | increase in the AUC [4, 10]: 50–82% | increase in the Cmax [4, 10]: up to 112% | mean area under the curve (AUC) ([4]; oral 400 mg twice daily): 19000 ± 9100 ng·h/mL | mean maximum plasma concentration (Cmax) ([4]; oral 400 mg twice daily): 2320 ± 1070 ng/mL | metabolizing enzymes [5]: metabolized primarily by cytochrome P450 (CYP) 3A4 isoform and with minor contributions from CYP2C8 | t1/2 ([6]; Mean (SD) of 4 patients): 78.1 (75.4) h | Tmax ([6]; Mean (SD) of 4 patients): 2.3 (1.3) h | Cmin ([6]; Mean (SD) of 4 patients, 200–300 mg twice-daily): 1193.5 ng/mL and 1193.5 (414.7) ng/mL | CL/F ([6]; Patient 1): 2.8 L/h | t1/2 ([6]; Patient 1, elimination half-life): 25.1 h | Tmax ([6]; Patient 1): 1 h | Cmax [6, 11]: 3491.4 ng/mL | Cmin [6, 11]: 1633.9 ng/mL | CL/F ([6]; Patient 2): 1.9 L/h | t1/2 ([6]; Patient 2, elimination half-life): 69.3 h | Tmax ([6]; Patient 2): 2 h | Cmax [6, 12]: 1137.2 ng/mL | Cmin [6, 12]: 768.9 ng/mL | CL/F ([6]; Patient 3): 0.6 L/h | t1/2 ([6]; Patient 3, elimination half-life): 187.4 h | Tmax ([6]; Patient 3): 2 h | Cmax [6, 13]: 1988.4 ng/mL | Cmin [6, 13]: 1450.3 ng/mL | CL/F ([6]; Patient 4): 5.7 L/h | t1/2 ([6]; Patient 4, elimination half-life): 30.7 h | Tmax ([6]; Patient 4): 4 h | Cmax [6, 14]: 1103.5 ng/mL | Cmin [6, 14]: 920.7 ng/mL | aqueous solubility versus pH [7]: decreases significantly with increased pH | pKa [7]: 12.38 | solubility [7]: good solubility in DMSO, organic solvents (methanol and acetonitrile) and acidic aqueous solution | stock solution stability, value for accuracy [1]: less than 1.5% | degradation on the autosampler ([1]; extracted sample, up to 8 h, room temperature): < 8.3% | working solution stability, value for accuracy [1]: lower than 15.1% | plasma protein binding [8]: approximately 98%

— PMC10046071 (Biomedicines, 2023)
